Data taken from patent US20250228836A1, “BILASTINE COMPOSITION FOR ONCE-DAILY PARENTERAL ADMINISTRATION” (FAES FARMA, S.A., priority 2022, published 2025).
≈ marks a conversion by molar mass, not a printed value.

Key:
[1] = Solubility of bilastine vs. HPβCD concentration and pH; type: physicochemical; settings: aqueous HPβCD solution, thermodynamic from solid
Procedure: The concentration of bilastine in the solubility tests was determined by UV/vis spectrophotometer was a Cary® 60 UV-VIS.
The solubility of bilastine was determined at different concentrations of HPβCD and pH values.
The desired amount of HPβCD was dispersed in 40 ml of purified water in a 50 ml flask until complete dissolution and further diluted with water up to a final volume of 50 ml. Each solution was divided into three solutions (15 ml each) and the pH was adjusted with HCl 37% to the desired values (3, 5 or 7, respectively). Each solution was transferred again into three vials (5 mL solution each) in order to have several replicates for each sample. Bilastine was added in excess to each vial and the solutions were kept under magnetic stirring for 24 hours. After that time, the pH was adjusted again and they were kept stirring for another 24 hours. Finally, the samples were filtered through 0.45 μm filters (Biofil®, Nylon membrane, 13 mm Ø), the final pH was checked and the concentration was determined by UV spectrophotometry at a wavelength of 254 nm. The statistical analysis of the results was carried out using the Centurion XVI Statgraphics program version 16.1.15.

[2] = pH 5-8; cited from earlier work

Work on CCOCCn1c(C2CCN(CCc3ccc(C(C)(C)C(=O)O)cc3)CC2)nc2ccccc21 [Bilastine, 2-[4-(2-{4-[1-(2-ethoxyethyl)-1H-benzimidazol-2-yl]-1-piperidinyl}ethyl)phenyl]-2-methylpropanoic acid] yielded a solubility at 48 h ([1]; aqueous with cosolvent or surfactant or cyclodextrin, Entry 3: HPβCD 30 % w/v, final pH 4.14) of 37.8 mg/mL (≈ 81.5 mM), a solubility at 48 h ([1]; aqueous with cosolvent or surfactant or cyclodextrin, Entry 4: HPβCD 20 % w/v, final pH 5.16) of 18.4 mg/mL (≈ 39.6 mM) and a solubility at 48 h ([1]; aqueous with cosolvent or surfactant or cyclodextrin, Entry 5: HPβCD 30 % w/v, final pH 5.13) of 27.2 mg/mL (≈ 58.7 mM). It also gave a solubility at 48 h ([1]; aqueous with cosolvent or surfactant or cyclodextrin, Entry 6: HPβCD 30 % w/v, final pH 7.15) of 16.9 mg/mL (≈ 36.5 mM), a solubility at 48 h ([1]; pH 4.6, aqueous with cosolvent or surfactant or cyclodextrin, Entry 2: HPβCD 20 % w/v, final pH 4.60) of 35.1 mg/mL (≈ 75.7 mM) and a solubility at 48 h ([1]; pH 4.7, aqueous with cosolvent or surfactant or cyclodextrin, Entry 1: HPβCD 10 % w/v, final pH 4.70) of 18.3 mg/mL (≈ 39.4 mM). The “water solubility of bilastine” value [2] was “about 0.5 mg/ml”.
